From publication PMC10147923, “Pain-causing stinging nettle toxins target TMEM233 to modulate NaV1.7 function” (Nature Communications, 2023)
Values joined by “and” are separate entries in the source; they are usually repeats but may differ in a detail not shown here. Equal entries are not always repeated. Positions of bridges follow the written chain, without caps; N, C: chain ends. Residues, ends and D or L forms follow the SMILES beside them.

Assays:
NaV1.9 = type: cell-based, mouse
[1] = test system: NaV1.7Advill knockout mice; assay: Nocifensive behaviors after intraplantar injection, NaV1.7Advill mice; type: in vivo, mouse; conditions: i.pl. ExTxA 10 nM
Excerpt: Tmem233^Cre animals were generated and genotyped as previously described, with a Kozak-Cre-pA cassette replacing the ATG start codon of the murine Tmem233 gene to produce a functional knockout in homozygous animals. NaV1.7^Advill mice lacking functional NaV1.7 in all sensory neurons were generated and genotyped as previously described[33] by crossing Advillin-Cre mice with floxed Scn9a animals in which loxP sites were inserted in introns flanking exons 14 and 15[34],[35]. NaV1.9^−/− mice and NaV1.8^Cre/Cre mice, in which Cre recombinase substitutes the translational start-site of NaV1.8, were generated and sequenced as previously described[34],[36],[37].
(§1) Nocifensive responses to intraplantar administration of ExTxA (5–10 nM) were assessed as previously described. In brief, ExTxA was diluted in sterile saline/0.1% BSA and administered by an intraplantar injection (40 μL) into a single hind paw of Tmem233^Cre/Cre, NaV1.7^Advill and wild-type littermate controls. Pain behaviors, consisting of paw licks or flinches, were counted from video recordings by a blinded investigator for up to 60 min following injection.

hNaV1.4 = assay: Persistent current, HEK293-hNaV1.4/β1; type: cell-based, human; conditions: ExTxA 1 µM
hNaV1.7 = assay: Persistent current, Xenopus oocytes expressing hNaV1.7 (two-electrode voltage clamp); type: cell-based, human; conditions: ExTxA 1 µM
Method: Human NaV1.7 and TMEM233 genes cloned into pcDNA3.1 plasmid were linearized with NotI restriction enzyme and used as template for cRNA synthesis using T7 polymerase (mMessage mMachine Kit; Life Technologies). Stage V/VI oocytes were injected with 5–20 ng total RNA, then incubated at 17 °C for 1–3 days in 50% Leibovitz’s L-15 medium (Gibco), supplemented with 25 µg/mL gentamicin, 25 µg/mL streptomycin, and 2.5% fetal horse serum. Two-electrode voltage clamp (Axoclamp 900 A amplifier; Axon Instruments) were performed at room temperature in ND96 solution (in mM: 96 NaCl, 2 KCl, 1 MgCl2, 1.8 CaCl2, 5 HEPES; pH 7.4 with NaOH) with a ∼40 μL recording chamber. In experiments where ExTxA was added, solutions were supplemented with 0.05% fatty-acid free bovine serum albumin. Borosilicate glass microelectrodes had resistances of 0.2–0.8 MΩ when backfilled with 3 M KCl. Data were digitized at 20 kHz and filtered at 2 kHz using pCLAMP 11 software (Digidata 1550B; Axon Instruments).
ExTxA activity was assayed at 1 µM, analyzing the current from a 50 ms step to −10 mV every 10 s, from a holding volage of −80 mV. For all other voltage protocols, oocytes were held at −90 mV. Activation curves were obtained by measuring peak currents during steps from −100 mV to +60 mV in +10 mV increments applied every 10 s, with G/Gmax plot between −80 mV and +10 mV. […]

[2] = test system: Tmem233Cre/Cre knockout mice; assay: Nocifensive behaviors after intraplantar injection, Tmem233Cre/Cre mice; type: in vivo, mouse
Method: as §1

NaV1.7/TRARG1 = NaV1.7/TRARG1 (Homo sapiens, UniProt Q15858+Q8IXB3); type: cell-based
TE-671 cells = conditions: ExTxA 1 µM + veratridine 5 µM + ouabain 20 nM

Chain of NaV1.7/TRARG1 (Q07699 19-218): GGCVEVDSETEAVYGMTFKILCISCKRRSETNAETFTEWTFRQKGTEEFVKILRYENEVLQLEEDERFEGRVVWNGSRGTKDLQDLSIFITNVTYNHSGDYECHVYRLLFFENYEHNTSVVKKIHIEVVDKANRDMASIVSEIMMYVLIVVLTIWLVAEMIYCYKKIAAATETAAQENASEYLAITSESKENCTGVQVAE
Chain of NaV1.7/TRARG1 (Q15858 whole entry): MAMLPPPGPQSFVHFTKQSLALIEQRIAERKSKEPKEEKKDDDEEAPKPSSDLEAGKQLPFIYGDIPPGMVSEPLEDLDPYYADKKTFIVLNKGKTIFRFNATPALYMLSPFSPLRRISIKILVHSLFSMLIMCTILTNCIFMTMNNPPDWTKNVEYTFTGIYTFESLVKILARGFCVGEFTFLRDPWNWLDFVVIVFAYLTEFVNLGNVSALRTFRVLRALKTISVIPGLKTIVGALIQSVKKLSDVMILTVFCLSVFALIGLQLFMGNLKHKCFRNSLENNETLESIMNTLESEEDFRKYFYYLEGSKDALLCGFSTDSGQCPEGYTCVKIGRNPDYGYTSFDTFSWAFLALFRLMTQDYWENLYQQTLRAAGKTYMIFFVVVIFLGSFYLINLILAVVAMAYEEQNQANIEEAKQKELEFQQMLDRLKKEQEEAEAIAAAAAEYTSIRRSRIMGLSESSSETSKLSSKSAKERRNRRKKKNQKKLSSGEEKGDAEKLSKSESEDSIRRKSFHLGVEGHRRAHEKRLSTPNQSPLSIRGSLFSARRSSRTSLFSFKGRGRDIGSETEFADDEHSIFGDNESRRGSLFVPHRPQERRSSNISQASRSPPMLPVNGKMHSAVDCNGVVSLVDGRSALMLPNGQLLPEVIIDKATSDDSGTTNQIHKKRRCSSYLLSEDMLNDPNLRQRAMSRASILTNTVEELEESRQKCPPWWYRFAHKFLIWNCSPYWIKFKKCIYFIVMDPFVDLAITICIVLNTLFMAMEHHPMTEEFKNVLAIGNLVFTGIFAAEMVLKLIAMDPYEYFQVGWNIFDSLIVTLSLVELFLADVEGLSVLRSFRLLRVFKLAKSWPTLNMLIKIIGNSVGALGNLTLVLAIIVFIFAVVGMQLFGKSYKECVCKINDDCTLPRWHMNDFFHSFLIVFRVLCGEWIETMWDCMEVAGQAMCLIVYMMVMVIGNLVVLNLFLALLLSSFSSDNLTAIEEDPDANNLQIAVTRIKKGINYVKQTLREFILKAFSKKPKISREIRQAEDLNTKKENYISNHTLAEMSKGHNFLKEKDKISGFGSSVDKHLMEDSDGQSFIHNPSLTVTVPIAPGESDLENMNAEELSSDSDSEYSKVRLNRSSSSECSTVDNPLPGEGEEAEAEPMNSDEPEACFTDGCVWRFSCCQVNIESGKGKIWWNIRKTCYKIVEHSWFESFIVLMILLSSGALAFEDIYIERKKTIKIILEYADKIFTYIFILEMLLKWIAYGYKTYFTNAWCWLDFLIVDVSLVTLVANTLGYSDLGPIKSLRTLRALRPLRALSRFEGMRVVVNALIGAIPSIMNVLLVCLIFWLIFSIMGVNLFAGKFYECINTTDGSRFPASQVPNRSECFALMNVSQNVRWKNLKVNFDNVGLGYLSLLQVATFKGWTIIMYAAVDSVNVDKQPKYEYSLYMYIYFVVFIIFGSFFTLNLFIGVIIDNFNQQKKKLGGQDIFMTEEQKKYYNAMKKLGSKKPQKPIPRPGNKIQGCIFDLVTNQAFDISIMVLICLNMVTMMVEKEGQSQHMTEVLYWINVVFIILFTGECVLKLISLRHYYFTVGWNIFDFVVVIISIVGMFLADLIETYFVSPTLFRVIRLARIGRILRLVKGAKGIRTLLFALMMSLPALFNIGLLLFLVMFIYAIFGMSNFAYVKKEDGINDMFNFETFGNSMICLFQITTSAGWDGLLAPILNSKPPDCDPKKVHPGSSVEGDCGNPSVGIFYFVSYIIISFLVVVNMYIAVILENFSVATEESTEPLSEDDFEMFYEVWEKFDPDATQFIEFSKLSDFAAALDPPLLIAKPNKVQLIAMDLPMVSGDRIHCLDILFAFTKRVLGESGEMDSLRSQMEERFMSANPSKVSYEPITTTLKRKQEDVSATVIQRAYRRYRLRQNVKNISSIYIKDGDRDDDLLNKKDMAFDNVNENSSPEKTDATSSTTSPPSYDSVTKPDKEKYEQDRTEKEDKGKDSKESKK
Chain of NaV1.7/TRARG1 (Q8IXB3 whole entry): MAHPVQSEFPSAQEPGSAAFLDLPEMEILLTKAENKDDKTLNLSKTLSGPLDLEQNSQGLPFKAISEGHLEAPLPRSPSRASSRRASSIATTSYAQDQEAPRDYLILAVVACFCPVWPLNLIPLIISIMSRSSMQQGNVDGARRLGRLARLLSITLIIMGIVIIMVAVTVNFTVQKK

Structure (SMILES): CC[C@H](C)[C@@H]1NC(=O)[C@H](CCCNC(=N)N)NC(=O)[C@H](Cc2ccccc2)NC(=O)[C@H](CC(C)C)NC(=O)[C@H](CO)NC(=O)[C@@H]2CSSC[C@@H]3NC(=O)[C@H]([C@@H](C)O)NC(=O)[C@H](CSSC[C@H](NC(=O)[C@H](CCCNC(=N)N)NC(=O)[C@@H]4CCCN4C(=O)[C@@H](N)CC(C)C)C(=O)N[C@@H](CC(=O)O)C(=O)N[C@@H](CO)C(=O)N4CCC[C@H]4C(=O)N[C@@H](Cc4ccccc4)C(=O)N2)NC(=O)[C@H](CCCCN)NC(=O)[C@H](CC(=O)O)NC(=O)CNC(=O)[C@H](CSSC[C@@H](C(=O)N[C@H](C(=O)N2CCC[C@H]2C(=O)N[C@@H](CC(=O)O)C(=O)N[C@H](C(=O)O)C(C)C)C(C)C)NC(=O)[C@H](CC(C)C)NC(=O)CNC(=O)[C@H](Cc2ccccc2)NC(=O)[C@H]([C@@H](C)CC)NC(=O)[C@@H]2CCCN2C(=O)[C@H](CC(C)C)NC(=O)[C@@H]2CCCN2C(=O)[C@H](C(C)C)NC3=O)NC(=O)[C@H](CC(C)C)NC(=O)CNC1=O [ExTxA, excelsatoxin A] (H-LPRCDSPFCSLFRIGLCGDKCTCVPLPIFGLCVPDV-OH; disulfide 4-21, 9-23, 17-32)
- DRG NaV1.9 Δ persistent current (I90 ms/Ipeak) (NaV1.9): -0.057 ± 0.028
- Difference between means (B - A), wildtype minus Scn9a-/- [1]: 279.3 ± 22.82
- nocifensive responses in knockout mice [1]: abolished
- cumulative flinches (60 min) ([1]; 40 μL, NaV1.7Advill, mean, n = 4): 40.0 ± 6.5 and 40
- cumulative flinches (60 min) ([1]; NaV1.7Advill (Scn9a-/-), individual animals): 32 and 43 and 57 and 28
- persistent current (I40 ms/Ipeak) (hNaV1.4; individual cells): -0.00323 and 0.000561 and 0.001128 and 1.82e-5 and 3.19e-5 and 0.001575 and 0.001393 and -0.00031 and -0.00116
- Δ persistent current (I40 ms/Ipeak; buffer cf. ExTxA) (hNaV1.4; mean): 7.89E-07 ± 0.0005 and 7.889e-7
- Xenopus oocyte persistent current (I40 ms/Ipeak) (hNaV1.7; hNaV1.7 alone, mean ± SEM, n = 6): 0.081 ± 0.012
- persistent current (I40 ms/Ipeak) (hNaV1.7; individual oocytes): 0.01056 and 0.002122 and 0.005805 and 0.01324 and 0.01132 and 0.02838 and 0.05496 and 0.01837 and -0.00648 and -0.01247 and 0.02865
- nocifensive behaviors, 0-40 min combined (Fig. 3g) ([2]; TMEMCre KO, 0-40 min, individual animals, one line each (n = 16)): 8 and 6 and 329 and 151 and 352 and 36 and 124 and 41 and 45 and 71 and 136 and 66 and 142 and 96
- nocifensive behaviors, 0-40 min combined, mean (Fig. 3g) ([2]; TMEMCre KO, 0-40 min, mean, n = 16): 115.9
- ExTxA-induced pain behaviours (cumulative paw licks and flinches over 40 min) ([2]; i.pl. ExTxA 10 nM, Tmem233Cre KO, mean ± SEM, n = 16): 115.9 ± 25.3
- ExTxA-induced nocifensive behaviors in Tmem233Cre/Cre KO mice ([2]; mouse, in vivo): significantly reduced
- nocifensive behaviors, 0-40 min combined, difference between means (B - A) ± SEM (Fig. 3g) ([2]; mouse, in vivo): -118.4 ± 37.67
- LogEC50 (NaV1.7/TRARG1; Nav1.7/TRARG1, 95% CI -6.511 to -5.182, Fig 4g): -5.623
- HillSlope (NaV1.7/TRARG1; Nav1.7/TRARG1, Fig 4g): 0.6926
- Top (NaV1.7/TRARG1; Nav1.7/TRARG1, best-fit, constraint Top < 1, Fig 4g): 1
- ExTxA-induced currents with TRARG1 (NaV1.7/TRARG1; co-expression with NaV1.7): resulted in ExTxA-induced persistent currents
- effect of gene knockdown on ExTxA cytotoxicity (TE-671 cells): prevented by the knockdown of SCN9A (the gene encoding the NaV1.7 α subunit) as well as ten other genes (RNF121, GPAA1, PIGT, CRELD1, PIGK, STT3B, TMEM233, PIGS, MMGT1, and LMAN2L), and exacerbated by knockdown of SPAG5, TMEM161B and NEDD4L
